Laboratory results: PubChem BioAssay (NCI)
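Cells were grown in 96-well plates and exposed to each compound for 48 hours at five concentrations; endpoints were interpolated linearly between bracketing concentrations, or set to the highest concentration if not reached. TGI marks complete inhibition of growth.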

Assays:
Assay in all cases: NCI-60 cell line screen, 48 h
[1] = tested on: 786-0 renal
[2] = tested on: A498 renal
[3] = tested on: A549 NSCLC
[4] = tested on: ACHN renal
[5] = tested on: BT-549 breast
[6] = tested on: CAKI-1 renal
[7] = tested on: CCRF-CEM leukemia
[8] = tested on: COLO 205 colon
[9] = tested on: DU-145 prostate
[10] = tested on: EKVX NSCLC
[11] = tested on: HCC-2998 colon
[12] = tested on: HCT-116 colon
[13] = tested on: HCT-15 colon
[14] = tested on: HL-60(TB) leukemia
[15] = tested on: HOP-62 NSCLC
[16] = tested on: HOP-92 NSCLC
[17] = tested on: HS 578T breast
[18] = tested on: HT29 colon
[19] = tested on: IGROV1 ovarian
[20] = tested on: K-562 leukemia
[21] = tested on: KM12 colon
[22] = tested on: M14 melanoma
[23] = tested on: MALME-3M melanoma
[24] = tested on: MCF7 breast
[25] = tested on: MDA-MB-231 breast
[26] = tested on: MDA-MB-435
[27] = tested on: MDA-N
[28] = tested on: MOLT-4 leukemia
[29] = tested on: NCI-H226 lung
[30] = tested on: NCI-H23 lung
[31] = tested on: NCI-H460 lung
[32] = tested on: NCI-H522 lung
[33] = tested on: NCI/ADR-RES ovarian
[34] = tested on: OVCAR-3 ovarian
[35] = tested on: OVCAR-4 ovarian
[36] = tested on: OVCAR-5 ovarian
[37] = tested on: OVCAR-8 ovarian
[38] = tested on: PC-3 prostate
[39] = tested on: RPMI-8226 leukemia
[40] = tested on: RXF 393 renal
[41] = tested on: SF-268 CNS
[42] = tested on: SF-295 CNS
[43] = tested on: SF-539 CNS
[44] = tested on: SK-MEL-2 melanoma
[45] = tested on: SK-MEL-28 melanoma
[46] = tested on: SK-MEL-5 melanoma
[47] = tested on: SK-OV-3 ovarian
[48] = tested on: SN12C renal
[49] = tested on: SNB-19 CNS
[50] = tested on: SNB-75 CNS
[51] = tested on: SR leukemia
[52] = tested on: SW-620 colon
[53] = tested on: T-47D breast
[54] = tested on: TK-10 renal
[55] = tested on: U251 CNS
[56] = tested on: UACC-257 melanoma
[57] = tested on: UACC-62 melanoma
[58] = tested on: UO-31 renal
[59] = tested on: LOX IMVI melanoma

COc1cc2c3cc1Oc1c(OC)c(OC)cc4c1C(Cc1ccc(O)c(c1)Oc1ccc(cc1)CC3N(C)CC2)CN(C)C4 (centres undefined)
TGI [1]: 22.9 µM
TGI [2]: 31.2 µM
TGI [3]: 63.9 µM
TGI [4]: > 100 µM
TGI [5]: 30.2 µM
TGI [6]: 44.3 µM
TGI [7]: 15.6 µM
TGI [8]: 21.6 µM
TGI [9]: 60.8 µM
TGI [10]: 43.4 µM
TGI [11]: 13.7 µM
TGI [12]: 19 µM
TGI [13]: 33.9 µM
TGI [14]: 6.11 µM
TGI [15]: 37.2 µM
TGI [16]: 43.4 µM
TGI [17]: 38.9 µM
TGI [18]: 13.7 µM
TGI [19]: 48.9 µM
TGI [20]: 29.6 µM
TGI [21]: 26.3 µM
TGI [22]: 15 µM
TGI [23]: 30.9 µM
TGI [24]: 34.2 µM
TGI [25]: 28.1 µM
TGI [26]: 23.7 µM
TGI [27]: 24.5 µM
TGI [28]: 54.5 µM
TGI [29]: 68.9 µM
TGI [30]: 34.9 µM
TGI [31]: 33.7 µM
TGI [32]: 26.2 µM
TGI [33]: 41.7 µM
TGI [34]: 30.9 µM
TGI [35]: 39.1 µM
TGI [36]: 44.8 µM
TGI [37]: 31.3 µM
TGI [38]: > 100 µM
TGI [39]: 47.6 µM
TGI [40]: 23.4 µM
TGI [41]: 65.6 µM
TGI [42]: 32.7 µM
TGI [43]: 26.9 µM
TGI [44]: 33.6 µM
TGI [45]: 31.9 µM
TGI [46]: 26.4 µM
TGI [47]: 47.9 µM
TGI [48]: 34.7 µM
TGI [49]: 84.5 µM
TGI [50]: 29.9 µM
TGI [51]: 41.7 µM
TGI [52]: 30 µM
TGI [53]: 69.6 µM
TGI [54]: 32.2 µM
TGI [55]: 24.7 µM
TGI [56]: 27.1 µM
TGI [57]: 32.1 µM
TGI [58]: 29.8 µM

CCCCCCCCCCCCNC(=O)CCC(NC(=O)c1ccc(N(C)Cc2cnc3nc(N)nc(N)c3n2)cc1)C(=O)NCCCCCCCCCCCC (centres undefined)
TGI [1]: > 100 µM
TGI [2]: > 100 µM
TGI [3]: > 100 µM
TGI [4]: > 100 µM
TGI [5]: > 100 µM
TGI [7]: 66.7 µM
TGI [8]: > 100 µM
TGI [9]: > 100 µM
TGI [10]: > 100 µM
TGI [11]: > 100 µM
TGI [12]: > 100 µM
TGI [13]: > 100 µM
TGI [14]: 87.1 µM
TGI [15]: 95.6 µM
TGI [16]: 30.9 µM
TGI [17]: > 100 µM
TGI [18]: > 100 µM
TGI [19]: > 100 µM
TGI [20]: 62.6 µM
TGI [21]: > 100 µM
TGI [59]: 30.7 µM
TGI [22]: > 100 µM
TGI [23]: > 100 µM
TGI [24]: > 100 µM
TGI [25]: > 100 µM
TGI [26]: > 100 µM
TGI [27]: > 100 µM
TGI [28]: > 100 µM
TGI [29]: > 100 µM
TGI [30]: > 100 µM
TGI [32]: > 100 µM
TGI [33]: > 100 µM
TGI [34]: > 100 µM
TGI [35]: > 100 µM
TGI [36]: > 100 µM
TGI [37]: > 100 µM
TGI [38]: > 100 µM
TGI [39]: > 100 µM
TGI [40]: 43.3 µM
TGI [41]: > 100 µM
TGI [42]: > 100 µM
TGI [43]: > 100 µM
TGI [44]: > 100 µM
TGI [45]: > 100 µM
TGI [46]: > 100 µM
TGI [48]: > 100 µM
TGI [49]: 72.1 µM
TGI [50]: 20.8 µM
TGI [51]: 32.3 µM
TGI [52]: > 100 µM
TGI [53]: 61.5 µM
TGI [54]: > 100 µM
TGI [55]: 24.7 µM
TGI [56]: > 100 µM
TGI [57]: > 100 µM
TGI [58]: > 100 µM
